Entries after “also recorded” stand apart in the source; their conditions may differ. Non-standard residues stand in square brackets, D forms with d. Residues, ends and D or L forms follow the SMILES beside them. *: point of attachment. 5FAM = O=C1OC2(c3ccc(O)cc3Oc3cc(O)ccc32)c2ccc(C(=O)*)cc21; Pro(cis-4-guanidino) = NC(N)=N[C@@H]1CN[C@H](C(=O)O)C1; Pro(4S-NH2) = N[C@@H]1CN[C@H](C(=O)O)C1; βAla = NCCC(=O)O
Columns and labels:
[1] = Peptide stability in culture medium containing 10% FBS (pre-incubation uptake and LC-MS); assay type: in vitro ADME; conditions: 0–24 h at 37 °C, then 2 hr with HeLa cells at 37 °C (1 μM, flow cytometry), and LC-MS analysis, 1–24 hr in culture medium containing 10% FBS
Protocol: Figure S8. (a) Cellular uptake of the peptides 1-5 after 1-24 h pre-incubation (peptide concentration: 1 µM). Values are the means ± standard deviation of three independent Figure 5b. Cellular uptake of the peptides 1-5 LC-MS analsisys. the stability of the peptides (1-24 hr) after 1-24 hr pre-incubation. in culture media containing 10% FBS using LC-MS. cultures. (b) The peptides’ stability (1-24 hr) analysis in culture medium containing FBS using LCCytotoxicity-MS. […]

HeLa cells [2] = assay: Time course of cellular uptake (1–24 hr); assay type: cell-based; conditions: 37 °C, 1 μM peptide; for stability in culture medium / cellular environment, as concluded from the uptake time course: culture medium containing fetal bovine serum (FBS)
Protocol: The results of the cytotoxicity analysis, in which HeLa cells were treated with peptides 1–5 for 24 hr at concentrations of 1, 4, and 8 μM, are shown in Fig. S9. […] Next, we investigated the intracellular uptake pathways of R9 and peptide 3. In the presence of various endocytosis inhibitors (amiloride, a macropinocytosis inhibitor[37]; nystatin, a caveolae-mediated endocytosis inhibitor[38]; and sucrose, a clathrin-mediated endocytosis inhibitor[39]), the migration levels of R9 and 3 into the HeLa cells were compared (Fig. S10). […] Then, we investigated the intracellular localization and dynamic behavior of R9 and 3 using fluorescence microscopy. The cells’ late endosomes/lysosomes were stained with LysoTracker Red (red), and their nuclei were stained with Hoechst 33342 (blue). […] As a general approach, peptides that can change their helical structures in accordance with pH fluctuations are often used to promote escape from endosomes. […] We considered that peptide 3 might also directly penetrate the cell membrane more efficiently than R9 (R9 passes through the cell membrane via not only endocytosis but also non-endocytosis pathway, that is, direct permeation to the cell membrane)[44]. Therefore, we investigated the intracellular uptake of peptide 3 at low temperature using flow cytometry and fluorescence microscopy. At low temperature, energy-dependent pathways such as endocytosis are inhibited so it is possible to assess direct peptide penetration via energy-independent pathways. […] Peptides that can directly penetrate through the cell membrane can be used for efficient intracellular delivery as they are not affected by problems associated with the need to escape from endosomes.
Figure 5 (a) Cellular uptake of the peptides 1–5 and R9 after 1–24 hr (peptide concentration: 1 μM). Values are the means ± standard deviation of three independent cultures. (b,c) Peptide 3 and R9 were colocalized with lysosome marker. HeLa cells were treated with 10 μM peptides at 37 °C for 2 hr. The acidic late endosomes/lysosomes were stained with LysoTracker Red (red), and the nuclei were stained with Hoechst 33342 (blue). The scale bars represent 50 μm.
HeLa, A549, Jurkat and CHO-K1 cells were seeded in 6-well dishes at a density of 4.0 × 10^6 cells/well and cultured in DMEM (HeLa, A549), RPMI-1640 (Jurkat) and Ham’s F-12 (CHO-K1) for 24 hr, respectively. The cells were treated with each peptide (peptide concentration; 1 μM) and incubated for each time (1, 2, 4, 8, 16 and 24 hr). Then, the cells were washed three times with phosphate buffer (PBS) supplemented with heparin (20 units/mL) and detached by treatment of trypsin-EDTA. […] Then, the collected cells were suspended in 500 μL of PBS buffer and mean fluorescence intensity in cells was measured by flow cytometer. […]

HeLa cells [3] = assay: Intracellular localization by fluorescence microscopy (endosomal escape); assay type: cell-based; conditions: 10 μM peptide, 37 °C, 15 min–2 hr, LysoTracker Red and Hoechst 33342 staining
Protocol: The results of the cytotoxicity analysis, in which HeLa cells were treated with peptides 1–5 for 24 hr at concentrations of 1, 4, and 8 μM, are shown in Fig. S9. […] Next, we investigated the intracellular uptake pathways of R9 and peptide 3. In the presence of various endocytosis inhibitors (amiloride, a macropinocytosis inhibitor[37]; nystatin, a caveolae-mediated endocytosis inhibitor[38]; and sucrose, a clathrin-mediated endocytosis inhibitor[39]), the migration levels of R9 and 3 into the HeLa cells were compared (Fig. S10). […] Then, we investigated the intracellular localization and dynamic behavior of R9 and 3 using fluorescence microscopy. The cells’ late endosomes/lysosomes were stained with LysoTracker Red (red), and their nuclei were stained with Hoechst 33342 (blue). […] As a general approach, peptides that can change their helical structures in accordance with pH fluctuations are often used to promote escape from endosomes. […] Therefore, we investigated the intracellular uptake of peptide 3 at low temperature using flow cytometry and fluorescence microscopy. […]
Figure S11. Fluorescence microscopy images of HeLa cells that had been treated with 10 µM of peptides [(a) peptide 3, (b) R9, (c) peptide 2] for 15 min-2 hr at 37 °C. […]
Figure S12. Fluorescence microscopy images of HeLa cells that had been treated with 10 µM of peptides [(a) R9, (b) peptide 3, (c) peptide 2] for 2 hr at 37 °C. […]

HeLa cells [4] = assay: Uptake in the presence of endocytosis inhibitors; assay type: cell-based; conditions: amiloride 25 μM, sucrose 0.4 M or nystatin 25 μg/mL, 1 μM peptide, 1 hr, flow cytometry
Protocol: The results of the cytotoxicity analysis, in which HeLa cells were treated with peptides 1–5 for 24 hr at concentrations of 1, 4, and 8 μM, are shown in Fig. S9. […] Next, we investigated the intracellular uptake pathways of R9 and peptide 3. In the presence of various endocytosis inhibitors (amiloride, a macropinocytosis inhibitor[37]; nystatin, a caveolae-mediated endocytosis inhibitor[38]; and sucrose, a clathrin-mediated endocytosis inhibitor[39]), the migration levels of R9 and 3 into the HeLa cells were compared (Fig. S10). […] Then, we investigated the intracellular localization and dynamic behavior of R9 and 3 using fluorescence microscopy. The cells’ late endosomes/lysosomes were stained with LysoTracker Red (red), and their nuclei were stained with Hoechst 33342 (blue). […] Therefore, we investigated the intracellular uptake of peptide 3 at low temperature using flow cytometry and fluorescence microscopy. […]
The cells were seeded onto 6-well culture plates (400,000 cells/well) and incubated overnight in 2 mL of DMEM containing 10% FBS. […] Then, fluorescence intensity in the cells was measured as above. […] Statistical differences were analyzed by Student’s t-test. […]
Figure S11. Fluorescence microscopy images of HeLa cells that had been treated with […]

| stability in culture medium / cellular environment, as concluded from the uptake time course (HeLa cells [2]) | Compound | cell-penetrating ability and stability after pre-incubation in medium (in words) [1] | endosomal escape / localization (in words) (HeLa cells [3]) | cellular uptake over incubation time (in words) (HeLa cells [2]; medium containing FBS, flow cytometry, three independent cultures) | effect of endocytosis inhibitors on uptake (in words) (HeLa cells [4]) |
| --- | --- | --- | --- | --- | --- |
| – | N=C(N)NCCC[C@H](NC(=O)CCNC(=O)c1ccc2c(c1)C(=O)OC21c2ccc(O)cc2Oc2cc(O)ccc21)C(=O)N[C@@H](CCCNC(=N)N)C(=O)N1CCC[C@H]1C(=O)N[C@@H](CCCNC(=N)N)C(=O)N[C@@H](CCCNC(=N)N)C(=O)N1CCC[C@H]1C(=O)N[C@@H](CCCNC(=N)N)C(=O)N[C@@H](CCCNC(=N)N)C(=O)N1CCC[C@H]1C(=O)NCC(=O)NCC(=O)NCC(N)=O [peptide 1, FAM-β-Ala-(L-Arg-L-Arg-L-Pro)3-(Gly)3-NH2] (HELM PEPTIDE1{[O=C1OC2(c3ccc(O)cc3Oc3cc(O)ccc32)c2ccc(C(=O)[*:2])cc21].[bAla].R.R.P.R.R.P.R.R.P.G.G.G.[am]}$$$$V2.0) | sharply fell as the pre-incubation time increased | – | – | – |
| – | N=C(N)NCCC[C@H](NC(=O)CCNC(=O)c1ccc2c(c1)C(=O)OC21c2ccc(O)cc2Oc2cc(O)ccc21)C(=O)N[C@@H](CCCNC(=N)N)C(=O)N1C[C@@H](N)C[C@H]1C(=O)N[C@@H](CCCNC(=N)N)C(=O)N[C@@H](CCCNC(=N)N)C(=O)N1C[C@@H](N)C[C@H]1C(=O)N[C@@H](CCCNC(=N)N)C(=O)N[C@@H](CCCNC(=N)N)C(=O)N1C[C@@H](N)C[C@H]1C(=O)NCC(=O)NCC(=O)NCC(N)=O [peptide 2, FAM-β-Ala-(L-Arg-L-Arg-L-Pro^NH2)3-(Gly)3-NH2] ({5FAM-βAla}-RR[Pro(4S-NH2)]RR[Pro(4S-NH2)]RR[Pro(4S-NH2)]GGG-NH2) | more chemically stable than R9 and peptide 1 | – | – | – |
| more stable than R9 | N=C(N)NCCC[C@H](NC(=O)CCNC(=O)c1ccc2c(c1)C(=O)OC21c2ccc(O)cc2Oc2cc(O)ccc21)C(=O)N[C@@H](CCCNC(=N)N)C(=O)N1C[C@@H](NC(=N)N)C[C@H]1C(=O)N[C@@H](CCCNC(=N)N)C(=O)N[C@@H](CCCNC(=N)N)C(=O)N1C[C@@H](NC(=N)N)C[C@H]1C(=O)N[C@@H](CCCNC(=N)N)C(=O)N[C@@H](CCCNC(=N)N)C(=O)N1C[C@@H](NC(=N)N)C[C@H]1C(=O)NCC(=O)NCC(=O)NCC(N)=O [peptide 3, FAM-β-Ala-(L-Arg-L-Arg-L-Pro^Gu)3-(Gly)3-NH2] ({5FAM-βAla}-RR[Pro(cis-4-guanidino)]RR[Pro(cis-4-guanidino)]RR[Pro(cis-4-guanidino)]GGG-NH2) | more chemically stable than R9 and peptide 1; also recorded: remained stable in the medium containing FBS | – | – | – |
| more stable than R9 | N=C(N)NCCC[C@H](NC(=O)CCNC(=O)c1ccc2c(c1)C(=O)OC21c2ccc(O)cc2Oc2cc(O)ccc21)C(=O)N[C@@H](CCCNC(=N)N)C(=O)N1C[C@@H](NC(=N)N)C[C@H]1C(=O)N1C[C@@H](NC(=N)N)C[C@H]1C(=O)N[C@@H](CCCNC(=N)N)C(=O)N[C@@H](CCCNC(=N)N)C(=O)N[C@@H](CCCNC(=N)N)C(=O)N[C@@H](CCCNC(=N)N)C(=O)N1C[C@@H](NC(=N)N)C[C@H]1C(=O)NCC(=O)NCC(=O)NCC(N)=O [peptide 4, FAM-β-Ala-(L-Arg)2-(L-Pro^Gu)2-(L-Arg)4-L-Pro^Gu-(Gly)3-NH2] ({5FAM-βAla}-RR[Pro(cis-4-guanidino)][Pro(cis-4-guanidino)]RRRR[Pro(cis-4-guanidino)]GGG-NH2) | – | – | – | – |

| Compound | stability in culture medium / cellular environment, as concluded from the uptake time course (HeLa cells [2]) | cell-penetrating ability and stability after pre-incubation in medium (in words) [1] | endosomal escape / localization (in words) (HeLa cells [3]) | cellular uptake over incubation time (in words) (HeLa cells [2]; medium containing FBS, flow cytometry, three independent cultures) | effect of endocytosis inhibitors on uptake (in words) (HeLa cells [4]) |
| --- | --- | --- | --- | --- | --- |
| nona-arginine [R9, reference compound] | unstable | sharply fell as the pre-incubation time increased | co-localized with the late endosomes/lysosomes | gradually decreased after 1-hr incubation | decreased by treatment with amiloride or sucrose |

From publication PMC5016780, “Development of a Cell-penetrating Peptide that Exhibits Responsive Changes in its Secondary Structure in the Cellular Environment” (Scientific Reports, 2016)
